Tests used:
[1] = Cytotoxicity against HEK293T cells assessed as reduction in cell viability after 48 hrs by MTS assay; assay type: cell-based, HEK-293T; conditions: human
[2] = tested on: Stenotrophomonas maltophilia; test: Antibacterial activity against Stenotrophomonas maltophilia ATCC 13636 after 18 hrs by CLSI broth microdilution method; assay type: functional; conditions: ATCC 13636, 18 h
Pseudomonas aeruginosa [3] = test: Antibacterial activity against Pseudomonas aeruginosa ATCC 27853 after 18 hrs by CLSI broth microdilution method; assay type: functional; conditions: ATCC 27853, 18 h
Klebsiella pneumoniae [4] = test: Antibacterial activity against extended-spectrum beta-lactamase harboring Klebsiella pneumoniae ATCC 700603 after 18 hrs by CLSI broth microdilution method; assay type: functional; conditions: Klebsiella pneumoniae, 700603, 18 h
[5] = tested on: Staphylococcus epidermidis; test: Antibacterial activity against methicillin-sensitive Staphylococcus epidermidis ATCC 12228 after 18 hrs by CLSI broth microdilution method; assay type: functional; conditions: ATCC 12228, 18 h
Enterococcus faecalis [6] = test: Antibacterial activity against vancomycin-sensitive Enterococcus faecalis 12-5 after 18 hrs by CLSI broth microdilution method; assay type: functional; conditions: 12-5, 18 h
Klebsiella pneumoniae [7] = test: Antibacterial activity against extended-spectrum beta-lactamase deficient Klebsiella pneumoniae 12-4 after 18 hrs by CLSI broth microdilution method; assay type: functional; conditions: 12-4, 18 h
Escherichia coli [8] = test: Antibacterial activity against extended-spectrum beta-lactamase harboring Escherichia coli 12-15 after 18 hrs by CLSI broth microdilution method; assay type: functional; conditions: 12-15, 18 h
Enterococcus faecalis [9] = test: Antibacterial activity against vancomycin-sensitive Enterococcus faecalis ATCC 29212 after 18 hrs by CLSI broth microdilution method; assay type: functional; conditions: ATCC 29212, 18 h
Klebsiella aerogenes = test: Antibacterial activity against Enterobacter aerogenes ATCC 13048 after 18 hrs by CLSI broth microdilution method; assay type: functional; conditions: ATCC 13048, 18 h
Klebsiella pneumoniae [10] = test: Antibacterial activity against extended-spectrum beta-lactamase deficient Klebsiella pneumoniae 7 after 18 hrs by CLSI broth microdilution method; assay type: functional; conditions: Klebsiella pneumoniae, 7, 18 h
Enterococcus faecalis [11] = test: Antibacterial activity against vancomycin-resistant Enterococcus faecalis ATCC 51299 after 18 hrs by CLSI broth microdilution method; assay type: functional; conditions: ATCC 51299, 18 h
Staphylococcus aureus [12] = test: Antibacterial activity against methicillin-sensitive Staphylococcus aureus ATCC 29213 after 18 hrs by CLSI broth microdilution method; assay type: functional; conditions: ATCC 29213, 18 h
Serratia marcescens = test: Antibacterial activity against Serratia marcescens ATCC 21074 after 18 hrs by CLSI broth microdilution method; assay type: functional; conditions: ATCC 21074, 18 h
Enterococcus faecalis [13] = test: Antibacterial activity against vancomycin-resistant Enterococcus faecalis 09-9 after 18 hrs by CLSI broth microdilution method; assay type: functional; conditions: 09-9, 18 h
Escherichia coli [14] = test: Antibacterial activity against extended-spectrum beta-lactamase deficient Escherichia coli 12-14 after 18 hrs by CLSI broth microdilution method; assay type: functional; conditions: 12-14, 18 h
Pseudomonas aeruginosa [15] = test: Antibacterial activity against Pseudomonas aeruginosa 12-16 after 18 hrs by CLSI broth microdilution method; assay type: functional; conditions: 12-16, 18 h
Staphylococcus aureus [16] = test: Antibacterial activity against methicillin-resistant Staphylococcus aureus ATCC 33591 after 18 hrs by CLSI broth microdilution method; assay type: functional; conditions: ATCC 33591, 18 h
Proteus mirabilis = test: Antibacterial activity against Proteus mirabilis 12-6 after 18 hrs by CLSI broth microdilution method; assay type: functional; conditions: 12-6, 18 h
Klebsiella pneumoniae [17] = test: Antibacterial activity against new delhi metallo-beta-lactamase-1 harboring Klebsiella pneumoniae ATCC BAA-2146 after 18 hrs by CLSI broth microdilution method; assay type: functional; conditions: ATCC BAA-2146, 18 h
Enterococcus faecium [18] = test: Antibacterial activity against vancomycin-resistant Enterococcus faecium ATCC 700221 after 18 hrs by CLSI broth microdilution method; assay type: functional; conditions: ATCC 700221, 18 h
Citrobacter freundii = test: Antibacterial activity against Citrobacter freundii ATCC 43864 after 18 hrs by CLSI broth microdilution method; assay type: functional; conditions: ATCC 43864, 18 h
Escherichia coli [19] = test: Antibacterial activity against extended-spectrum beta-lactamase deficient Escherichia coli 1515 after 18 hrs by CLSI broth microdilution method; assay type: functional; conditions: Escherichia coli, 1515, 18 h
[20] = tested on: Staphylococcus epidermidis; test: Antibacterial activity against methicillin-sensitive Staphylococcus epidermidis 12-6 after 18 hrs by CLSI broth microdilution method; assay type: functional; conditions: 12-6, 18 h
Staphylococcus aureus [21] = test: Antibacterial activity against methicillin-sensitive Staphylococcus aureus 12-28 after 18 hrs by CLSI broth microdilution method; assay type: functional; conditions: 12-28, 18 h
Enterobacter cloacae = test: Antibacterial activity against Enterobacter cloacae ATCC 43560 after 18 hrs by CLSI broth microdilution method; assay type: functional; conditions: ATCC 43560, 18 h
Providencia rettgeri = test: Antibacterial activity against Providencia rettgeri ATCC 31052 after 18 hrs by CLSI broth microdilution method; assay type: functional; conditions: ATCC 31052, 18 h
Staphylococcus aureus [22] = test: Antibacterial activity against methicillin-sensitive Staphylococcus aureus 15 after 18 hrs by CLSI broth microdilution method; assay type: functional; conditions: Staphylococcus aureus, 15, 18 h
[23] = tested on: Staphylococcus epidermidis; test: Antibacterial activity against methicillin-resistant Staphylococcus epidermidis 12-8 after 18 hrs by CLSI broth microdilution method; assay type: functional; conditions: 12-8, 18 h
Staphylococcus aureus [24] = test: Antibacterial activity against methicillin-resistant Staphylococcus aureus 12-33 after 18 hrs by CLSI broth microdilution method; assay type: functional; conditions: 12-33, 18 h
Klebsiella pneumoniae [25] = test: Antibacterial activity against extended-spectrum beta-lactamase harboring Klebsiella pneumoniae 12-8 after 18 hrs by CLSI broth microdilution method; assay type: functional; conditions: 12-8, 18 h
Enterococcus faecium [26] = test: Antibacterial activity against vancomycin-resistant Enterococcus faecium 12-1 after 18 hrs by CLSI broth microdilution method; assay type: functional; conditions: 12-1, 18 h
Proteus vulgaris = test: Antibacterial activity against Proteus vulgaris ATCC 29905 after 18 hrs by CLSI broth microdilution method; assay type: functional; conditions: ATCC 29905, 18 h
Enterococcus faecium [27] = test: Antibacterial activity against vancomycin-sensitive Enterococcus faecium 12-3 after 18 hrs by CLSI broth microdilution method; assay type: functional; conditions: 12-3, 18 h
Pseudomonas aeruginosa [28] = test: Antibacterial activity against Pseudomonas aeruginosa PAO1 after 18 hrs by CLSI broth microdilution method; assay type: functional; conditions: PAO1, 18 h
Escherichia coli [29] = test: Antibacterial activity against extended-spectrum beta-lactamase deficient Escherichia coli ATCC 25922 after 18 hrs by CLSI broth microdilution method; assay type: functional; conditions: ATCC 25922, 18 h
[30] = tested on: Acinetobacter calcoaceticus; test: Antibacterial activity against Acinetobacter calcoaceticus ATCC 19606 after 18 hrs by CLSI broth microdilution method; assay type: functional; conditions: ATCC 19606, 18 h

CC(C)NC(=N)c1ccc2cc(-c3cncc(-c4cc5ccc(C(=N)NC(C)C)cc5[nH]4)c3)[nH]c2c1
32 µg/mL: MIC (Staphylococcus aureus [24])
26.5 µg/mL: CC50 at 48 h [1]
8 µg/mL: MIC [5] | MIC (Staphylococcus aureus [12]) | MIC [23]
2 µg/mL: MIC [20]
16 µg/mL: MIC (Staphylococcus aureus [16]) | MIC (Staphylococcus aureus [21]) | MIC (Staphylococcus aureus [22])
> 64 µg/mL: MIC [2] | MIC (Pseudomonas aeruginosa [3]) | MIC (Klebsiella pneumoniae [4]) | MIC (Enterococcus faecalis [6]) | MIC (Klebsiella pneumoniae [7]) | MIC (Escherichia coli [8]) | MIC (Enterococcus faecalis [9]) | MIC (Klebsiella aerogenes) | MIC (Klebsiella pneumoniae [10]) | MIC (Enterococcus faecalis [11]) | MIC (Serratia marcescens) | MIC (Enterococcus faecalis [13]) | MIC (Escherichia coli [14]) | MIC (Pseudomonas aeruginosa [15]) | MIC (Proteus mirabilis) | MIC (Klebsiella pneumoniae [17]) | MIC (Enterococcus faecium [18]) | MIC (Citrobacter freundii) | MIC (Escherichia coli [19]) | MIC (Enterobacter cloacae) | MIC (Providencia rettgeri) | MIC (Klebsiella pneumoniae [25]) | MIC (Enterococcus faecium [26]) | MIC (Proteus vulgaris) | MIC (Enterococcus faecium [27]) | MIC (Pseudomonas aeruginosa [28]) | MIC (Escherichia coli [29]) | MIC [30]

CCC(C)NC(=N)c1ccc2cc(-c3ccc(-c4cc5ccc(C(=N)NC(C)CC)cc5[nH]4)cc3)[nH]c2c1 (stereo not given)
1 µg/mL: MIC (Enterococcus faecalis [9]) | MIC [20] | MIC (Enterococcus faecium [27])
15.4 µg/mL: CC50 at 48 h [1]
4 µg/mL: MIC [2] | MIC (Pseudomonas aeruginosa [3]) | MIC (Klebsiella pneumoniae [7]) | MIC (Escherichia coli [8]) | MIC (Klebsiella aerogenes) | MIC (Klebsiella pneumoniae [10]) | MIC (Escherichia coli [14]) | MIC (Klebsiella pneumoniae [17]) | MIC (Citrobacter freundii) | MIC (Escherichia coli [19]) | MIC (Enterobacter cloacae) | MIC (Providencia rettgeri) | MIC (Klebsiella pneumoniae [25]) | MIC (Proteus vulgaris) | MIC (Escherichia coli [29])
0.25 µg/mL: MIC [5]
0.5 µg/mL: MIC (Staphylococcus aureus [12]) | MIC (Staphylococcus aureus [16]) | MIC (Staphylococcus aureus [21]) | MIC (Staphylococcus aureus [22]) | MIC [23] | MIC (Staphylococcus aureus [24])
16 µg/mL: MIC (Pseudomonas aeruginosa [15]) | MIC (Proteus mirabilis) | MIC (Pseudomonas aeruginosa [28]) | MIC [30]
8 µg/mL: MIC (Klebsiella pneumoniae [4]) | MIC (Serratia marcescens)
2 µg/mL: MIC (Enterococcus faecalis [6]) | MIC (Enterococcus faecalis [11]) | MIC (Enterococcus faecalis [13]) | MIC (Enterococcus faecium [18]) | MIC (Enterococcus faecium [26])

CN(C)C(=N)c1ccc2cc(-c3ccc(Oc4ccc(-c5cc6ccc(C(=N)N(C)C)cc6[nH]5)cc4)cc3)[nH]c2c1
1 µg/mL: MIC (Enterococcus faecalis [11])
4 µg/mL: MIC (Escherichia coli [19]) | MIC (Escherichia coli [29])
128 µg/mL: MIC (Pseudomonas aeruginosa [3])
16 µg/mL: MIC [2]
0.25 µg/mL: MIC (Staphylococcus aureus [12]) | MIC (Staphylococcus aureus [16]) | MIC [20] | MIC (Staphylococcus aureus [21]) | MIC (Staphylococcus aureus [22]) | MIC [23] | MIC (Staphylococcus aureus [24])
8 µg/mL: MIC (Klebsiella pneumoniae [4]) | MIC (Klebsiella pneumoniae [7]) | MIC (Escherichia coli [8]) | MIC (Klebsiella aerogenes) | MIC (Klebsiella pneumoniae [10]) | MIC (Escherichia coli [14]) | MIC (Klebsiella pneumoniae [17]) | MIC (Citrobacter freundii) | MIC (Providencia rettgeri) | MIC (Klebsiella pneumoniae [25]) | MIC (Proteus vulgaris)
2 µg/mL: MIC (Enterococcus faecalis [6]) | MIC (Enterococcus faecalis [13]) | MIC (Enterococcus faecium [18]) | MIC (Enterococcus faecium [26]) | MIC (Enterococcus faecium [27])
32 µg/mL: MIC (Serratia marcescens) | MIC (Proteus mirabilis)
0.5 µg/mL: MIC (Enterococcus faecalis [9])
64 µg/mL: MIC (Enterobacter cloacae)
> 128 µg/mL: MIC (Pseudomonas aeruginosa [15]) | MIC (Pseudomonas aeruginosa [28]) | MIC [30]
0.125 µg/mL: MIC [5]
